In patent US9708314B2, “Heterocyclic amide compound” (NISSAN CHEMICAL INDUSTRIES, LTD., priority 2013, dated 2017):

Experiments:
Type in all cases: in vivo
Leptochloa chinensis = experiment: Test Example 3: herbicidal effect by application to foliage (Wagner pot, water depth 0.1-0.5 cm); conditions: Nineteenth Table; application to foliage; application herbicide amount 320 g/ha
Method in brief: (§1)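 Greenhouse pot test, 25–30 °C, alluvial soil. Sown seedlings grown 14 days then sprayed on leaves and stems with emulsion diluted to target g/ha. Rating at 3 weeks, 0–5 scale (0 ≤5%, 5 ≥90%).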

Cyperus difformis = experiment: as above; conditions: Nineteenth Table; application to foliage; application herbicide amount 320 g/ha
Method in brief: as §1

[1] = test system: Echinochloa crus-galli var. crus-galli; experiment: as above; conditions: Nineteenth Table; application to foliage; application herbicide amount 320 g/ha
Method in brief: as §1

[2] = test system: transplanted Oryza sativa; experiment: Test Example 1: effect on crop, application before weed generation in submerged conditions; conditions: Application herbicide amount 320 g/ha; Seventeenth Table
Method in brief: (§2)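 Rating, on a six-step scale from almost no effect (0) to almost completely withered (5), was made three weeks after pre-emergence treatment. Treatment was surface application to flooded pots at g/ha rates, with plants kept at 25° C. to 30° C.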

[3] = test system: directly sowed Oryza sativa; experiment: Test Example 3: effect on crop by application to foliage (Wagner pot, water depth 0.1-0.5 cm); conditions: Nineteenth Table; application to foliage; application herbicide amount 320 g/ha
Method in brief: as §1

Scirpus juncoides = experiment: Test Example 1: herbicidal activity, application before weed generation in submerged conditions; conditions: Application herbicide amount 320 g/ha; Seventeenth Table
Method in brief: as §2

[4] = test system: Echinochloa oryzacola Vasing.; experiment: as above; conditions: Application herbicide amount 320 g/ha; Seventeenth Table
Method in brief: as §2

Monochoria vaginalis = experiment: as above; conditions: Application herbicide amount 320 g/ha; Seventeenth Table
Method in brief: as §2

Row | SMILES | D (herbicidal effect grade) (Leptochloa chinensis) | E (herbicidal effect grade) (Cyperus difformis) | H (herbicidal effect grade) [1] | a: transplanted Oryza sativa (effect on crop grade) [2] | b (effect on crop grade) [3] | B: Scirpus juncoides (herbicidal effect grade) (Scirpus juncoides) | A: Echinochloa oryzicola Vasing. (herbicidal effect grade) [4] | C: Monochoria vaginalis (herbicidal effect grade) (Monochoria vaginalis)
1 | CSCCNc1nnc2c(C(=O)Nc3nnnn3C)ccc(C(F)(F)F)n12 [2-080] | 5 (Herbicidal ratio of 90% or more (almost completely withered)) | 5 (Herbicidal ratio of 90% or more (almost completely withered)) | 4 (Herbicidal ratio of 70% or more and less than 90%) | 2 (Herbicidal ratio of 20% or more and less than 40%) | 3 (Herbicidal ratio of 40% or more and less than 70%) | 0 (Herbicidal ratio of 5% or less (almost no effect)) | 3 (Herbicidal ratio of 40% or more and less than 70%) | 0 (Herbicidal ratio of 5% or less (almost no effect))
2 | Cn1nnnc1NC(=O)c1ccc(C(F)(F)F)n2c(NCC(F)(F)F)nnc12 [2-081] | 5 (Herbicidal ratio of 90% or more (almost completely withered)) | 5 (Herbicidal ratio of 90% or more (almost completely withered)) | 5 (Herbicidal ratio of 90% or more (almost completely withered)) | 3 (Herbicidal ratio of 40% or more and less than 70%) | 4 (Herbicidal ratio of 70% or more and less than 90%) | 3 (Herbicidal ratio of 40% or more and less than 70%) | 4 (Herbicidal ratio of 70% or more and less than 90%) | 4 (Herbicidal ratio of 70% or more and less than 90%)
3 | CC(C)N(C)c1nnc2c(C(=O)Nc3nnnn3C)ccc(C(F)(F)F)n12 [2-082] | 5 (Herbicidal ratio of 90% or more (almost completely withered)) | 5 (Herbicidal ratio of 90% or more (almost completely withered)) | 5 (Herbicidal ratio of 90% or more (almost completely withered)) | 5 (Herbicidal ratio of 90% or more (almost completely withered)) | 5 (Herbicidal ratio of 90% or more (almost completely withered)) | 5 (Herbicidal ratio of 90% or more (almost completely withered)) | 5 (Herbicidal ratio of 90% or more (almost completely withered)) | 5 (Herbicidal ratio of 90% or more (almost completely withered))
4 | CN(c1nnc2c(C(=O)Nc3nnnn3C)ccc(C(F)(F)F)n12)C1CCCCC1 [2-083] | 4 (Herbicidal ratio of 70% or more and less than 90%) | 5 (Herbicidal ratio of 90% or more (almost completely withered)) | 4 (Herbicidal ratio of 70% or more and less than 90%) | 2 (Herbicidal ratio of 20% or more and less than 40%) | 0 (Herbicidal ratio of 5% or less (almost no effect)) | 5 (Herbicidal ratio of 90% or more (almost completely withered)) | 5 (Herbicidal ratio of 90% or more (almost completely withered)) | 4 (Herbicidal ratio of 70% or more and less than 90%)
5 | Cn1nnnc1NC(=O)c1ccc(C(F)(F)F)n2c(SCC3CC3)nnc12 [2-084] | 5 (Herbicidal ratio of 90% or more (almost completely withered)) | 5 (Herbicidal ratio of 90% or more (almost completely withered)) | 5 (Herbicidal ratio of 90% or more (almost completely withered)) | 4 (Herbicidal ratio of 70% or more and less than 90%) | 5 (Herbicidal ratio of 90% or more (almost completely withered)) | 5 (Herbicidal ratio of 90% or more (almost completely withered)) | 5 (Herbicidal ratio of 90% or more (almost completely withered)) | 4 (Herbicidal ratio of 70% or more and less than 90%)
6 | Cn1nnnc1NC(=O)c1ccc(C(F)(F)F)n2c(SCC3CCCO3)nnc12 (stereo not drawn) [2-085] | 5 (Herbicidal ratio of 90% or more (almost completely withered)) | 4 (Herbicidal ratio of 70% or more and less than 90%) | 5 (Herbicidal ratio of 90% or more (almost completely withered)) | 1 (Herbicidal ratio of 5% or more and less than 20%) | 4 (Herbicidal ratio of 70% or more and less than 90%) | 5 (Herbicidal ratio of 90% or more (almost completely withered)) | 5 (Herbicidal ratio of 90% or more (almost completely withered)) | 4 (Herbicidal ratio of 70% or more and less than 90%)
7 | Cn1nnnc1NC(=O)c1ccc(C(F)(F)F)n2c(SCC#N)nnc12 [2-086] | 5 (Herbicidal ratio of 90% or more (almost completely withered)) | 4 (Herbicidal ratio of 70% or more and less than 90%) | 5 (Herbicidal ratio of 90% or more (almost completely withered)) | 0 (Herbicidal ratio of 5% or less (almost no effect)) | 3 (Herbicidal ratio of 40% or more and less than 70%) | 2 (Herbicidal ratio of 20% or more and less than 40%) | 3 (Herbicidal ratio of 40% or more and less than 70%) | 3 (Herbicidal ratio of 40% or more and less than 70%)
8 | Cn1nnnc1NC(=O)c1ccc(C(F)(F)F)n2c(SCC(F)(F)F)nnc12 [2-087] | 5 (Herbicidal ratio of 90% or more (almost completely withered)) | 5 (Herbicidal ratio of 90% or more (almost completely withered)) | 5 (Herbicidal ratio of 90% or more (almost completely withered)) | 3 (Herbicidal ratio of 40% or more and less than 70%) | 3 (Herbicidal ratio of 40% or more and less than 70%) | 5 (Herbicidal ratio of 90% or more (almost completely withered)) | 5 (Herbicidal ratio of 90% or more (almost completely withered)) | 4 (Herbicidal ratio of 70% or more and less than 90%)
9 | CCN(CC)c1nnc2c(C(=O)Nc3nnnn3C)ccc(C(F)(F)F)n12 [2-089] | 5 (Herbicidal ratio of 90% or more (almost completely withered)) | 4 (Herbicidal ratio of 70% or more and less than 90%) | 4 (Herbicidal ratio of 70% or more and less than 90%) | 4 (Herbicidal ratio of 70% or more and less than 90%) | 2 (Herbicidal ratio of 20% or more and less than 40%) | 5 (Herbicidal ratio of 90% or more (almost completely withered)) | 5 (Herbicidal ratio of 90% or more (almost completely withered)) | 5 (Herbicidal ratio of 90% or more (almost completely withered))
